Measurements as given in US20250207131A1, “MODIFIED RNA AGENTS WITH REDUCED OFF-TARGET EFFECT” (Alnylam Pharmaceuticals, Inc., priority 2018, published 2025).
[UNA] = unlocked nucleic acid; r = 2'-OH (RNA)

Tests used:
[1] = test system: TTR; assay: In vitro on-target activity, primary mouse hepatocytes, transfection, RT-qPCR (TTR siRNAs); assay type: cell-based
Protocol: Cell culture and transfections: Primary Mouse Hepatocytes (Thermo Fisher Scientific/Gibco) were transfected by adding 4.9 μL of Opti-MEM plus 0.1 μL of Lipofectamine RNAiMax per well (Invitrogen, cat #13778-150) to 5 μL of siRNA duplexes per well into a 384-well plate and incubated at room temperature for 15 minutes. 40 μL of Dulbecco's Modified Eagle Medium (Hep3b) or William's Medium (PMH) containing ˜5 ×10^3 cells were then added to the siRNA mixture. Cells were incubated for 24 hours at 37° C. and then processed for RNA purification. Experiments were performed at 10 nM and 0.1 nM doses of siRNA.
Total RNA isolation using DYNABEADS mRNA Isolation Kit: RNA was isolated using an automated protocol on a BioTek-EL406 platform using DYNABEADs (Invitrogen, cat #61012). Briefly, 70 μL of Lysis/Binding Buffer and 10 μL of lysis buffer containing 3 μL of magnetic beads were added to each well. Plates were incubated on an electromagnetic shaker for 10 minutes at room temperature and then magnetic beads were captured and the supernatant was removed. Bead-bound RNA was then washed 2 times with 150 μL Wash Buffer A and once with Wash Buffer B. Beads were then washed with 150 μL Elution Buffer, re-captured and supernatant removed.
cDNA synthesis using ABI High capacity cDNA reverse transcription kit (Applied Biosystems, cat #4368813): 12 μL of a master mix containing 1.2 μL 10× Buffer, 0.48 μL 25× dNTPs, 1.2 μL 10× Random primers, 0.6 μL Reverse Transcriptase, 0.6 μL RNase inhibitor and 7.92 μL of H2O per reaction was added to RNA isolated above. Plates were sealed, mixed, and incubated on an electromagnetic shaker for 10 minutes at room temperature, followed by 2 h 37° C.
Real time PCR: 2 μL of cDNA were added to a master mix containing 2 μL water, 0.5 μL of either an appropriate GAPDH TaqMan VIC Probe or the target probe and 5 μL Lightcycler 480 probe master mix (Roche, cat #04887301001) per well in a 384 well plate (Roche, cat #04887301001). Real time PCR was done in a LightCycler480 Real Time PCR system (Roche). Each duplex was tested in quadruplicate and data were normalized to cells transfected with a non-targeting control siRNA. To calculate relative fold change, real time data were analyzed using the ΔΔCt method and normalized to assays performed with cells transfected with a non-targeting control siRNA.
RT qPCR for Ttr mRNA quantification:_Primary mouse hepatocytes (PMH) were cultured in Williams E Medium with 10% fetal bovine serum. Transfection of cells using RNAiMAX reagent was done as per the manufacturer's recommended protocol. Thus, cells were thawed immediately prior to transfection and then plated onto 384-well plates with a seed density of ˜5000 cells/well. Pre-incubated lipid/siRNA complex (0.1 μL RNAiMax, siRNA, in 5 μL Opti-MEM for 15 min) was added to a 384-well collagen-coated plate (BioCoat; Corning) and cells were incubated for 20 h at 37° C. in an atmosphere of 5% CO2. Eight 6-fold serial dilutions ranging from 10 to 0.036 nM were used to perform dose response experiments. Media was removed before washing and lysing the cells. Using Dynabeads mRNA isolation kit according to manufacturer's protocol, RNA was extracted and subsequently reverse-transcribed with the ABI high capacity cDNA reverse transcription kit. Quantification was done by real-time PCR, whereby the cDNA (2 μL) was added to a master mix that contained 0.5 μL mouse Gapdh TaqMan Probe, 0.5 μL Ttr TaqMan probes, and 5 μL Lightcycler 480 probe master mix per well in a 384-well 50 plate. Real-time PCR was accomplished in an ABI 7900HT RT-PCR system using the ΔΔCt (RQ) assay. Each duplex and concentration was tested in four biological replicates. To calculate relative fold change, real time data were analyzed using the ΔΔCt method and normalized to assays performed with cells transfected with 10 nM nonspecific siRNA. IC50 values were calculated using a 4-parameter fit model using XLFit.

[2] = test system: luciferase reporter plasmids (psiCHECK2, Renilla luciferase fused to target sequence); assay: Off-target Dual-Glo luciferase reporter assay in COS-7 cells; assay type: cell-based; conditions: luciferase reporter plasmids co-transfected with siRNAs into COS-7 cells
Protocol: Dual-Glo® Luciferase assay: Cos7 cells (ATCC, Manassas, VA) were grown to near confluence at 37° C. in an atmosphere of 5% CO2 in DMEM (ATCC) supplemented with 10% FBS, before being released from the plate by trypsinization. siRNA and psiCHCECK2 plasmid transfection was carried out by adding 5 μL of siRNA duplexes and 5 μL of psiCHECK2 plasmid per well along with 5 μL of Opti-MEM plus 0.1 μL of Lipofectamine 2000 per well (Invitrogen, Carlsbad CA. cat #13778-150) and then incubated at room temperature for 15 minutes. The mixture was then added to the cells which were re-suspended in 35 ul of fresh complete media. The transfected cells were incubated at 37° C. in an atmosphere of 5% CO2.
48 hours after the siRNAs and psiCHECK2 plasmid were transfected; Firefly (transfection control) and Renilla (fused to target sequence) luciferase were measured. First, media was removed from cells. Then Firefly luciferase activity was measured by adding 20 μL of Dual-Glo® Luciferase Reagent equal to the culture medium volume to each well and mix. The mixture was incubated at room temperature for 30 minutes before luminescence (500 nm) was measured on a Spectramax (Molecular Devices) to detect the Firefly luciferase signal. Renilla luciferase activity was measured by adding 20 μL of room temperature of Dual-Glo® Stop & Glo® Reagent was added to each well and the plates were incubated for 10-15 minutes before luminescence was again measured to determine the Renilla luciferase signal. The Dual-Glo® Stop & Glo® Reagent, quenches the firefly luciferase signal and sustained luminescence for the Renilla luciferase reaction. siRNA activity was determined by normalizing the Renilla signal to the Firefly (control) signal within each well. The magnitude of siRNA activity was then assessed relative to cells that were transfected with the same vector but were not treated with siRNA or were treated with a non-targeting siRNA. All transfections were done at n=2 or greater.

[3] = Rat toxicity study, clinical pathology parameters; conditions: rats, single subcutaneous dose 30 mg/kg, cohort average
[4] = UV thermal melting temperatures of mUNA 12-mer duplexes; assay type: physicochemical; conditions: for ΔTm (° C.): relative to unmodified duplex; for Tm (° C.)a / Tm (° C.)b: mUNA 12-mer duplexes, 2.0 μM each strand, pH 7.4
Source text: Values were reported as the maximum of the first derivative and are the average of at least two experiments.

## Parent (AD-64958): TTR siRNA; passenger a•a•caguGuUCUugcucuauaa(L), guide u•U•auaGagcaagaAcAcuguu•u•u (sense CAGUGUUCUUGCUCUAUAA; antisense AUAGAGCAAGAACACUGUU; phosphorothioate ends, overhangs, chemistry not fully specified)
[1]; TTR (Seq 2), primary mouse hepatocytes, 0.1 nM siRNA
  On-Target mRNA remaining (%) 0.1 nM siRNA: 25.5%
[1]; TTR (Seq 2), primary mouse hepatocytes, 10 nM siRNA
  On-Target mRNA remaining (%) 10 nM siRNA: 2.3%
[2]; TTR (Seq 2)
  IC50: 0.05 nM
[3]
  A/G Avg.: 1.3
  ALB Avg.: 2.9 g/dL
  ALP Avg.: 427 U/L
  ALT Avg.: 108 U/L
  AST Avg.: 332 U/L
  BILI Avg.: 0.48 mg/dL
  CA Avg.: 9.9 mg/dL
  CHOL Avg.: 43 mg/dL
  CREAT Avg.: 0.21 mg/dL
  GLDH Avg.: 140.8 U/L
  GLOB Avg.: 2.27 g/dL
  GLUC Avg.: 124 mg/dL
  K Avg.: 4.9 mmol/L
  NA Avg.: 140 mmol/L
  PHOS Avg.: 9.0 mg/dL
  PROT Avg.: 5 g/dL
  TRIG Avg.: 51 mg/dL
  UREAN Avg.: 18.6 mg/dL

## AD-64366.2 (sense UACAGUCUAUGU; antisense ACAUAGACUGUA; RNA, backbone not given here)
[4]; 1x PBS
  ΔTm (° C.): 0.0 °C
  Tm (° C.)a: 52.1 °C
[4]; 8×PBS
  ΔTm (° C.): 0.0 °C
  Tm (° C.)b: 61.1 °C

## AD-511237.1 (sense UACAGUCUAUGU; antisense ACATAGACTGTA; sense: RNA, backbone not given here; antisense: DNA, backbone not given here)
[4]; 8×PBS
  ΔTm (° C.): 0.0 °C
  Tm (° C.)b: 45.1 °C
[4]; 1x PBS
  Tm (° C.)a: 39.1 °C

## AD-511246.1 (sense UACAGUCUAUGU; antisense ACATAGACTGTA; sense: chemistry not given here; antisense: DNA, backbone not given here; sense strand has one mUNA-type uridine (Uun))
[4]; 8×PBS
  ΔTm (° C.): −20.5 °C
  Tm (° C.)b: 24.6 °C
[4]; 1x PBS
  Tm (° C.)a: <30 °C

## AD-511236.1 (sense TACAGUCTATGT; antisense ACATAGACTGTA; sense: chemistry not given here; antisense: DNA, backbone not given here; sense strand has one mUNA-type uridine (Uun))
[4]; 8×PBS
  ΔTm (° C.): −25.5 °C
  Tm (° C.)b: 23.6 °C
[4]; 1x PBS
  Tm (° C.)a: <30 °C

## AD-511256.1 (sense TACAGUCTATGT; antisense ACAUAGACUGUA; sense: chemistry not given here; antisense: RNA, backbone not given here; sense strand has one mUNA-type uridine (Uun))
[4]; 8×PBS
  ΔTm (° C.): −20.6 °C
  Tm (° C.)b: 28.6 °C
[4]; 1x PBS
  Tm (° C.)a: <30 °C

## AD-511227.1 (sense UACAGUCUAUGU; antisense ACAUAGACUGUA; sense: sugars from the 5' end r5 [UNA]1 r6, backbone not given here; antisense: RNA, backbone not given here)
[4]; 1x PBS
  ΔTm (° C.): −16.6 °C
  Tm (° C.)a: 35.5 °C
[4]; 8×PBS
  ΔTm (° C.): −17.5 °C
  Tm (° C.)b: 43.6 °C

## Parent (AD-125773): TTR siRNA; passenger u•u•cuugCuCUAuaaaccgugu(L), guide a•C•acgguuuauagAgCaagaa•c•a (sense CUUGCUCUAUAAACCGUGU; antisense ACGGUUUAUAGAGCAAGAA; phosphorothioate ends, overhangs, chemistry not fully specified)
[1]; TTR-4, modification at antisense position 7, primary mouse hepatocytes
  IC50: 0.136 nM
[2]; TTR-4, modification at antisense position 7
  IC50: 1.21 nM
